Tests used:
Experiment in all cases: relative viability (nuclei count vs DMSO), 5 days (fraction); higher = more cells survive
[1] = compound: CCN(CCO)CCCC(C)Nc1ccnc2cc(Cl)ccc12 [Hydroxychloroquine] + O=C(c1cc(Cc2n[nH]c(=O)c3ccccc23)ccc1F)N1CCN(C(=O)C2CC2)CC1 [Olaparib] (partner 8 µM)
Outline: (§1)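 Relative viability is defined as nuclei in treated wells over nuclei in vehicle wells. Duplicate plates were run and medians reported. Lung cancer cell lines in 1536-well plates were dosed by pin tool one day after seeding, with one drug or with a fixed anchor-drug dose plus five library-drug doses (not always all listed) in √10 steps, and nuclei were counted after 5 days.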

[2] = compound: CCN(CCO)CCCC(C)Nc1ccnc2cc(Cl)ccc12 [Hydroxychloroquine] + COc1cc2c(Oc3ccc(NC(=O)C4(C(=O)Nc5ccc(F)cc5)CC4)cc3F)ccnc2cc1OCCCN1CCOCC1 [Foretinib] (partner 0.25 µM)
Outline: as §1

[3] = compound: CCN(CCO)CCCC(C)Nc1ccnc2cc(Cl)ccc12 [Hydroxychloroquine] + Cc1nc(NC(=O)N2CCC[C@H]2C(N)=O)sc1-c1ccnc(C(C)(C)C(F)(F)F)c1 [Alpelisib] (partner 2 µM)
Outline: as §1

[4] = compound: CCN(CCO)CCCC(C)Nc1ccnc2cc(Cl)ccc12 [Hydroxychloroquine] + Nc1nc2[nH]cc(CCc3ccc(C(=O)N[C@@H](CCC(=O)O)C(=O)O)cc3)c2c(=O)[nH]1 [Pemetrexed] (partner 0.2 µM)
Outline: as §1

Cell Line	relative viability ([1]; first compound 0.5 µM)	relative viability ([1]; first compound 1.581 µM)	relative viability ([1]; first compound 5 µM)	relative viability ([1]; first compound 15.81 µM)	relative viability ([1]; first compound 50 µM)	relative viability ([2]; first compound 0.5 µM)	relative viability ([2]; first compound 1.581 µM)	relative viability ([2]; first compound 5 µM)	relative viability ([2]; first compound 15.81 µM)	relative viability ([2]; first compound 50 µM)	relative viability ([3]; first compound 0.5 µM)	relative viability ([3]; first compound 1.581 µM)	relative viability ([3]; first compound 5 µM)	relative viability ([3]; first compound 15.81 µM)	relative viability ([3]; first compound 50 µM)	relative viability ([4]; first compound 0.5 µM)	relative viability ([4]; first compound 1.581 µM)	relative viability ([4]; first compound 5 µM)	relative viability ([4]; first compound 15.81 µM)	relative viability ([4]; first compound 50 µM)
PC-14	0.31	0.28	0.276	0.25	0.285	0.909	0.987	1.01	0.972	0.962	0.782	0.858	0.951	0.892	1.01	0.149	0.145	0.118	0.142	0.129
NCI-H1437	0.604	0.665	0.65	0.653	0.652	1.26	1.26	1.33	1.31	1.28	0.909	0.926	1.05	1	1.05	0.326	0.314	0.324	0.33	0.321
NCI-H2170	0.647	0.568	0.679	0.528	0.734	1.04	1.04	0.973	1.01	1.1	0.832	0.797	0.844	0.801	0.835	0.341	0.265	0.255	0.233	0.29
LCLC-103H	0.754	0.688	0.84	0.766	0.78	0.776	0.707	0.848	0.893	0.887	1.02	0.907	0.965	0.888	0.953	0.439	0.504	0.368	0.455	0.473
NCI-H460	0.409	0.431	0.387	0.479	0.334	1.01	0.995	1.08	1.04	1.25	0.609	0.428	0.439	0.421	0.52	0.0632	0.055	0.0674	0.0549	0.0607
SW 1573	0.504	0.484	0.432	0.472	0.458	1.06	0.774	1.08	0.686	0.871	0.703	0.767	0.893	0.796	0.826	0.892	0.686	0.794	0.86	0.758
BEN	0.843	1.08	1.04	1.03	1.02	0.647	0.634	0.588	0.567	0.577	1.04	1.04	0.981	1.06	1.32	0.928	0.719	0.733	0.855	0.684
LC-2-ad	0.673	0.664	0.738	0.725	0.772	0.956	0.895	0.895	0.921	1.05	0.873	0.851	0.904	0.873	0.93	0.272	0.273	0.244	0.261	0.282
COR-L23	0.315	0.345	0.381	0.353	0.387	1.04	0.993	1.02	0.994	1.18	0.739	0.813	0.899	0.961	0.906	0.192	0.189	0.21	0.211	0.186
SK-LU-1	0.45	0.425	0.491	0.426	0.445	0.849	0.769	0.834	0.787	0.926	0.964	0.852	1.05	1.06	1.03	1.02	0.876	0.953	1.11	1.03
NCI-H1915	0.244	0.243	0.262	0.275	0.265	1.07	1.11	1.15	1.1	1.12	1.03	1.08	1.06	1.13	1.07	0.531	0.514	0.505	0.524	0.521
NCI-H647	0.521	0.531	0.591	0.626	0.602	1.25	1.16	1.18	1.39	1.25	1.12	1.06	1.1	1.02	1.13	0.186	0.176	0.202	0.196	0.182
NCI-H2009	0.672	0.72	0.7	0.698	0.695	1.19	1.21	1.24	1.16	1.18	1.19	1.24	1.26	1.17	1.09	1.07	0.991	1.02	1.07	1.01
NCI-H2126	0.98	0.921	0.9	0.975	0.926	1.21	1.11	1.33	1.08	1.1	0.727	0.738	0.73	0.775	0.794	0.709	0.636	0.666	0.653	0.716
LXF-289	1.07	1.06	1.07	1.15	1.16	0.96	0.959	0.969	1.03	1.08	1	1	1.06	1.03	1.11	0.886	0.908	0.92	0.929	0.927
PC-3 [JPC-3]	1.23	1.14	1.09	1.2	1.16	1.07	1.14	0.99	1.02	1.07	1.01	1.04	1.06	1	1.02	1.09	1.2	1.01	0.323	0.842

— the supplement of paper PMC10307832
